Structures can show the parent of a compound that is named as a salt.
What was measured:
Format in all cases: biochemical
AKT1 = molecular target: T1, AKT1 (Homo sapiens, UniProt P31749); assay: AKT Kinase Assay (IMAP fluorescent polarisation) vs AKT1; conditions: activated AKT1, FAM Crosstide substrate
T1 construct: purchased SignalChem
Description: (§1) Testing of the compounds was performed using an AKT Kinase Assay:
(§2) Activated AKT isoforms 1, 2 and 3 were assayed utilising a 5′ FAM Crosstide (Seq. GRPRTSSFAEG-OH). The extent of kinase phosphorylation was determined by fluorescent polarisation using IMAP progressive binding reagent, which introduces binding beads which allow the reagent to specifically bind to phosphate residues via covalent co-ordination complex bonds.
(§3) iMAP binding solution stops Crosstide/kinase interaction and specifically binds phosphorylated substrates. The degree of phosphorylation is determined by fluorescent polarisation (excitation 485 nm; emission 528 nm) or the reduction in speed of rotation of the excited substrate.
(§4) The following materials were used in the assay: • a) Activated AKT isoforms (SignalChem.) dissolved in Complete Reaction buffer at a pre-determined concentration selected so that the assay was carried out in the linear range. • b) AKT substrate peptide: FAM Crosstide (R7110) Molecular Devices, diluted in complete reaction buffer. • c) iMAP Progressive Screening Express Kit (R8127) Molecular Devices • d) Complete Reaction Buffer containing 0.1% BSA, 10 mM Tris-HCl, 10 mM MgCl2, 0.05% NaN3 and 0.01% phosphate free BSA, 1 mM DTT • e) Progressive Binding Solution containing 75% Buffer A, 25% Buffer B and low volume Binding Reagent which contains the binding entity for the assay • f) ATP diluted in complete reaction buffer • g) Black polystyrene 384 well assay plates (Nunc). • h) Biotek Synergy 4 Hybrid Plate reader.
(§5) 50 μl of test compound was dissolved in DMSO (Sigma Aldrich) and serially diluted in complete reaction buffer to give a fourteen point half log dose response and plated into 384 well black plates. The compound was incubated at room temperature with activated AKT isoform ([…]) at the pre-determined concentration, for 45 minutes.
(§6) […] of ATP solution mixed with 2.5 μl of AKT substrate peptide (FAM Crosstide (R7110) Molecular Devices) were dispensed into each well and the plate centrifuged at 1000 rpm for 20 seconds to ensure homogenous mixing of reagents. The reaction mix was incubated in the dark for one hour at room temperature.
(§7) The kinase reaction was stopped by the addition of Progressive Binding Solution and the mixture allowed to equilibrate for one hour in the dark, at room temperature.
(§8) The fluorescent polarisation generated in each well was determined using a […] Synergy 4 Hybrid plate reader. In brief, each reaction solution was excited at 485 nm with the emission measured at 528 nm in both the parallel and perpendicular pathway.
(§9) The polarisation value generated in each well was calculated by Gen5 software (Biotek) and the % inhibition of kinase activity compared to vehicle control was calculated via GraphPad Prism. IC50 values for each compound were calculated by non-linear regression analysis using Prism software.
(§10) All plates were internally controlled by two methods. Firstly, by calculating the signal:noise ratio; based on kinase polarisation without inhibitor and polarisation generated by complete reaction buffer in the absence of activated kinase. Secondly by determining IC50 values generated by known inhibitors of the AKT isoforms.

AKT2 = molecular target: T2, AKT2 (Homo sapiens, UniProt P31751); assay: AKT Kinase Assay (IMAP fluorescent polarisation) vs AKT2; conditions: activated AKT2, FAM Crosstide substrate
T2 construct: purchased SignalChem
Description: as §1, §2, §3, §4, §5, §6, §7, §8, §9, §10

AKT3 = molecular target: T3, AKT3 (Homo sapiens, UniProt Q9Y243); assay: AKT Kinase Assay (IMAP fluorescent polarisation) vs AKT3; conditions: activated AKT3, FAM Crosstide substrate
T3 construct: purchased SignalChem
Description: as §1, §2, §3, §4, §5, §6, §7, §8, §9, §10

T3 sequence (Q9Y243 whole entry): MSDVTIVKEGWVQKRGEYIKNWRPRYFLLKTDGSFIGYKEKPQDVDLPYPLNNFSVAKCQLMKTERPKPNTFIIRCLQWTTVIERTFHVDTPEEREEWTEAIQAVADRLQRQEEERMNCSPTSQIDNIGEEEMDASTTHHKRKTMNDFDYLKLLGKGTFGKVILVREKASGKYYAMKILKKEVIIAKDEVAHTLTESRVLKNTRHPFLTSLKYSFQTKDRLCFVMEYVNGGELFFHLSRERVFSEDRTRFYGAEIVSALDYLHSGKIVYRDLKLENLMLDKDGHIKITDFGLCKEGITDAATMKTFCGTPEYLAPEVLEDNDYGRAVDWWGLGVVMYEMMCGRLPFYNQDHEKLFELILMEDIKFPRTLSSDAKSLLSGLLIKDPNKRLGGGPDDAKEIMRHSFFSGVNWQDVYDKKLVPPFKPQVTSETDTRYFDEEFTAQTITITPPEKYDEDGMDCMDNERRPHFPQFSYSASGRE
T2 sequence (P31751 whole entry): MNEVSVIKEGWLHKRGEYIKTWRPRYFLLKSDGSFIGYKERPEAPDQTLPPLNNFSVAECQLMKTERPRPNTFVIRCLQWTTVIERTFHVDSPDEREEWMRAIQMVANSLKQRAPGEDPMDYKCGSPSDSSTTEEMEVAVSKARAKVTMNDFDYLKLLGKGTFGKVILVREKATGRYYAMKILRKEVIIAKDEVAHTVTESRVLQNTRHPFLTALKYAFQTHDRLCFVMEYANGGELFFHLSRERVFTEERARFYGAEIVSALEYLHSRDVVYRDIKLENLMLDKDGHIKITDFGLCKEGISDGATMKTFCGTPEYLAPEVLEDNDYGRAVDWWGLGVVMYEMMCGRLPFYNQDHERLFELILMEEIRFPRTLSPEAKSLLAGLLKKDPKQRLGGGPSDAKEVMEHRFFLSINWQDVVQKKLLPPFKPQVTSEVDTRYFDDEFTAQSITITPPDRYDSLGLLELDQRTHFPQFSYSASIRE
T1 sequence (P31749 whole entry): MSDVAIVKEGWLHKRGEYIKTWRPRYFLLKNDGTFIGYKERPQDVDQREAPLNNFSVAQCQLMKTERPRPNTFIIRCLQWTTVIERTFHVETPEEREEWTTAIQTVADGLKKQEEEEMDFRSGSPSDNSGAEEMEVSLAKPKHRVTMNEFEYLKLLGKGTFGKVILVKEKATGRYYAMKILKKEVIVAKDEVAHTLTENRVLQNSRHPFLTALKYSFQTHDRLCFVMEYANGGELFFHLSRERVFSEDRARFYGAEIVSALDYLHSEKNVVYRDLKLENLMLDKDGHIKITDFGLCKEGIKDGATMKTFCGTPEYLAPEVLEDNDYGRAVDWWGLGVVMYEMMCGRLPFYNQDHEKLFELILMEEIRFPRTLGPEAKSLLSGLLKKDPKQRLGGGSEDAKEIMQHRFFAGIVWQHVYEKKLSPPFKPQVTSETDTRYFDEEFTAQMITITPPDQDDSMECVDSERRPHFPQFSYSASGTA

SMILES	IC50 (AKT1)	IC50 (AKT2)	IC50 (AKT3)
COc1nc(N2CCN(C(C)=O)CC2)nc2oc(-c3ccc(C4(N)CCC4)cc3)c(-c3ccccc3)c12 [Example 45, 1-(4-(6-(4-(1-Aminocyclobutyl)phenyl)-4-methoxy-5-phenylfuro[2,3-d]pyrimidin-2-yl)piperazin-1-yl)ethanone]	100 to 1000 nM	100 to 1000 nM	1000 to 10000 nM
CCOc1nc(N2CCNCC2)nc2oc(-c3ccc(C4(N)CCC4)cc3)c(-c3ccccc3)c12 [Example 46, 1-(4-(4-Ethoxy-5-phenyl-2-(piperazin-14)furo[2,3-d]pyrimidin-6-yl)phenyl)cyclobutanamine, HCl]	100 to 1000 nM	100 to 1000 nM	100 to 1000 nM
COc1nc(N2CCCCC2)nc2oc(-c3ccc(C4(N)CCC4)cc3)c(-c3ccccc3)c12 [Example 47, 1-(4-(4-Methoxy-5-phenyl-2-(piperidin-1-yl)furo[2,3-d]pyrimidin-6-yl)phenyl)cyclobutanamine]	1000 to 10000 nM	1000 to 10000 nM	> 10000 nM
NC1CCN(c2ncc3c(-c4ccccc4)c(-c4ccc(C5(N)CCC5)cc4)oc3n2)CC1 [Example 50, 1-(6-(4-(1-Aminocyclobutyl)phenyl)-5-phenylfuro[2,3-d]pyrimidin-2-yl)piperidin-4-amine]	1000 to 10000 nM	100 to 1000 nM	> 10000 nM
NC1(c2ccc(-c3oc4nc(NCCO)ncc4c3-c3ccccc3)cc2)CCC1 [Example 51, 2-((6-(4-(1-Aminocyclobutyl)phenyl)-5-phenylfuro[2,3-d]pyrimidin-2-yl)amino)ethanol]	100 to 1000 nM	100 to 1000 nM	> 10000 nM
NC1(c2ccc(-c3oc4nc(N5CCOCC5)ncc4c3-c3ccccc3)cc2)CCC1 [Example 52, 1-(4-(2-Morpholino-5-phenylfuro[2,3-d]pyrimidin-6-yl)phenyl)cyclobutanamine]	1000 to 10000 nM	100 to 1000 nM	> 10000 nM
NC1(c2ccc(-c3oc4nc(N5CCNCC5)ncc4c3-c3ccccc3)cc2)CCC1 [Example 53, 1-(4-(5-Phenyl-2-(piperazin-1-yl)furo[2,3-d]pyrimidin-6-yl)phenyl)cyclobutanamine]	100 to 1000 nM	100 to 1000 nM	> 10000 nM
Cn1c(N2CC[C@H](O)C2)nc2oc(-c3ccc(C4(N)CCC4)cc3)c(-c3ccccc3)c2c1=O [Example 56, (S)-6-(4-(1-aminocyclobutyl)phenyl)-2-(3-hydroxypyrrolidin-1-yl)-3-methyl-5-phenylfuro[2,3-d]pyrimidin-4(3H)-one]	100 to 1000 nM	≤ 100 nM	1000 to 10000 nM
Cn1c(N2CC[C@@H](O)C2)nc2oc(-c3ccc(C4(N)CCC4)cc3)c(-c3ccccc3)c2c1=O [Example 57, (R)-6-(4-(1-Aminocyclobutyl)phenyl)-2-(3-hydroxypyrrolidin-1-yl)-3-methyl-5-phenylfuro[2,3-d]pyrimidin-4(3H)-one]	100 to 1000 nM	≤ 100 nM	1000 to 10000 nM
Cn1c(N2CCCC2)nc2oc(-c3ccc(C4(N)CCC4)cc3)c(-c3ccccc3)c2c1=O [Example 58, 6-(4-(1-Aminocyclobutyl)phenyl)-3-methyl-5-phenyl-2-(pyrrolidin-1-yl)furo[2,3-d]pyrimidin-4(3H)-one hydrochloride]	100 to 1000 nM	100 to 1000 nM	1000 to 10000 nM

The remaining lines, values ahead:

IC50 (AKT1)	IC50 (AKT2)	IC50 (AKT3)	SMILES
100 to 1000 nM	100 to 1000 nM	1000 to 10000 nM	COc1nc(N2CCN(CCN(C)C)CC2)nc2oc(-c3ccc(C4(N)CCC4)cc3)c(-c3ccccc3)c12 [Example 33, 1-(4-(2-(4-(2-(Dimethylamino)ethyl)piperazin-1-yl)-4-methoxy-5-phenylfuro[2,3-d]pyrimidin-6-yl)phenyl)cyclobutanamine]
≤ 100 nM	100 to 1000 nM	1000 to 10000 nM	COc1nc(NCCN2CCN(C)CC2)nc2oc(-c3ccc(C4(N)CCC4)cc3)c(-c3ccccc3)c12 [Example 34, 6-(4-(1-Aminocyclobutyl)phenyl)-4-methoxy-N-(2-(4-methylpiperazin-1-yl)ethyl)-5-phenylfuro[2,3-d]pyrimidin-2-amine]
100 to 1000 nM	100 to 1000 nM	1000 to 10000 nM	COc1nc(N2CC[C@H](O)C2)nc2oc(-c3ccc(C4(N)CCC4)cc3)c(-c3ccccc3)c12 [Example 35, (S)-1-(6-(4-(1-Aminocyclobutyl)phenyl)-4-methoxy-5-phenylfuro[2,3-d]pyrimidin-2-yl)pyrrolidin-3-ol]
≤ 100 nM	100 to 1000 nM	> 10000 nM	COc1nc(NCCO)nc2oc(-c3ccc(C4(N)CCC4)cc3)c(-c3ccccc3)c12 [Example 38, 2-((6-(4-(1-Aminocyclobutyl)phenyl)-4-methoxy-5-phenylfuro[2,3-d]pyrimidin-2-yl)amino)ethanol]
100 to 1000 nM	100 to 1000 nM	1000 to 10000 nM	COc1nc(N2CCC(N)CC2)nc2oc(-c3ccc(C4(N)CCC4)cc3)c(-c3ccccc3)c12 [Example 39, 1-(6-(4-(1-Aminocyclobutyl)phenyl)-4-methoxy-5-phenylfuro[2,3-d]pyrimidin-2-yl)piperidin-4-amine]
100 to 1000 nM	100 to 1000 nM	> 10000 nM	COc1nc(N2CCC(O)CC2)nc2oc(-c3ccc(C4(N)CCC4)cc3)c(-c3ccccc3)c12 [Example 40, 1-(6-(4-(1-Aminocyclobutyl)phenyl)-4-methoxy-5-phenylfuro[2,3-d]pyrimidin-2-yl)piperidin-4-ol]
≤ 100 nM	100 to 1000 nM	> 10000 nM	COc1nc(NCCCO)nc2oc(-c3ccc(C4(N)CCC4)cc3)c(-c3ccccc3)c12 [Example 41, 3-((6-(4-(1-Aminocyclobutyl)phenyl)-4-methoxy-5-phenylfuro[2,3-d]pyrimidin-2-yl)amino)propan-1-ol]
100 to 1000 nM	100 to 1000 nM	> 10000 nM	COCCNc1nc(OC)c2c(-c3ccccc3)c(-c3ccc(C4(N)CCC4)cc3)oc2n1 [Example 42, 6-(4-(1-Aminocyclobutyl)phenyl)-4-methoxy-N-(2-methoxyethyl)-5-phenylfuro[2,3-d]pyrimidin-2-amine]
100 to 1000 nM	100 to 1000 nM	1000 to 10000 nM	COc1nc(NCCN)nc2oc(-c3ccc(C4(N)CCC4)cc3)c(-c3ccccc3)c12 [Example 43, N^1-(6-(4-(1-Aminocyclobutyl)phenyl)-4-methoxy-5-phenylfuro[2,3-d]pyrimidin-2-yl)ethane-1,2-diamine]
≤ 100 nM	100 to 1000 nM	> 10000 nM	COc1nc(-n2ccnc2)nc2oc(-c3ccc(C4(N)CCC4)cc3)c(-c3ccccc3)c12 [Example 44, 1-(4-(2-(1H-Imidazol-1-yl)-4-methoxy-5-phenylfuro[2,3-d]pyrimidin-6-yl)phenyl)cyclobutanamine]
≤ 100 nM	100 to 1000 nM	100 to 1000 nM	COc1nc(NC(C)=O)nc2oc(-c3ccc(C4(N)CCC4)cc3)c(-c3ccccc3)c12 [Example 48, N-(6-(4-(1-Aminocyclobutyl)phenyl)-4-methoxy-5-phenylfuro[2,3-d]pyrimidin-2-yl)acetamide]
≤ 100 nM	100 to 1000 nM	> 10000 nM	COc1nc(OC)c2c(-c3ccccc3)c(-c3ccc(C4(N)CCC4)cc3)oc2n1 [Example 49, 1-(4-(2,4-Dimethoxy-5-phenylfuro[2,3-d]pyrimidin-6-yl)phenyl)cyclobutanamine]
≤ 100 nM	100 to 1000 nM	> 10000 nM	NC1(c2ccc(-c3oc4nc(OCCO)ncc4c3-c3ccccc3)cc2)CCC1 [Example 54, 2-((6-(4-(1-Aminocyclobutyl)phenyl)-5-phenylfuro[2,3-d]pyrimidin-2-yl)oxy)ethanol]
≤ 100 nM	100 to 1000 nM	> 10000 nM	CNc1ncc2c(-c3ccccc3)c(-c3ccc(C4(N)CCC4)cc3)oc2n1 [Example 55, 6-(4-(1-Aminocyclobutyl)phenyl)-N-methyl-5-phenylfuro[2,3-d]pyrimidin-2-amine]

— patent US20120309739A1, “AKT / PKB INHIBITORS” (ALMAC DISCOVERY LIMITED, priority 2009, published 2012)
